Reference: patent publication US4234583A, “2-Chloro-4-(4-lower alkyl-1-piperazinyl)benzenemethanol, N^ω -oxides and methods for their preparation” (priority 1978, dated 1980)
Where “and” joins values, the source holds several entries; their conditions need not be identical. Identical values can stand only once.

Legend:
[1] = Acute intramuscular toxicity (LD50) in uninfected mice; conditions: mouse, in vivo, im, read-out: Approximate Acute Intramuscular LD50
Source text: Approximate Acute Intramuscular LD50
Values in Uninfected Mice

[2] = tested on: Mature S. mansoni, Puerto Rican/Michigan strain; test: Primary screen in mice, single oral doses, mature S. mansoni infection (Puerto Rican/Michigan strain); type: in vivo
Source text: (§1) The compounds of the invention are useful in the treatment of schistosomiasis. Compounds of this invention, when placed in the primary screen in mice described in Am. J. Trop.
(§2) Effects of Single Oral Doses (Aqueous Solutions ) of 2-Chloro-
(§3) 4-(4-alkyl-1-piperazinyl)benzenemethanol, N^ω -oxides Against
(§4) Mature S. mansoni Infections in Mice

[3] = tested on: Salmonella typhimurium TA-100; type: cell-based
Source text: The compounds of this invention have the specific advantage over the corresponding des-N-oxide compounds in that the compounds are non-mutagenic in a test designed to determine mutagenicity which is described in J. Pharm. Exp. Therap., 200, 1 (1977).
Mutagenic Activity Using Salmonella typhimurium (TA-98 and TA-100)

[4] = tested on: Mature S. mansoni, Brazilian strain; test: Primary screen in mice, single oral doses, mature S. mansoni infection (Brazilian strain); type: in vivo
Source text: as §1, §2, §3, §4

[5] = tested on: Mature S. mansoni, Puerto Rican/Sterling Winthrop strain; test: Primary screen in mice, single oral doses, mature S. mansoni infection (Puerto Rican/Sterling Winthrop strain); type: in vivo
Source text: as §1, §2, §3, §4

[6] = tested on: Mature S. mansoni (Puerto Rican/Walter Reed Strain); test: Secondary test in monkeys, mature S. mansoni infection; type: in vivo; conditions: monkeys (Cebus apella), 50 × 4 mg/kg
Source text: The preferred compound of the invention, when placed in a secondary test in monkeys described in Am. J. Trop. Med. Hyg. 15, 705 (1966) gave the following data:
Effects of 2-chloro-4-(4-methyl-1-piperazinyl)benzenemethanol,
N^ω -oxide Against Mature S. mansoni (Puerto Rican/Walter Reed
Strain) Infections in Monkeys (Cebus apella)

[7] = tested on: Mature S. mansoni, Liberian strain; test: Primary screen in mice, single oral doses, mature S. mansoni infection (Liberian strain); type: in vivo
Source text: as §1, §2, §3, §4

[8] = tested on: Mature S. mansoni, Puerto Rican/Walter Reed strain; test: Primary screen in mice, single oral doses, mature S. mansoni infection (Puerto Rican/Walter Reed strain); type: in vivo
Source text: as §1, §2, §3, §4

[9] = tested on: Mature S. mansoni, St. Lucian strain; test: Primary screen in mice, single oral doses, mature S. mansoni infection (St. Lucian strain); type: in vivo
Source text: as §1, §2, §3, §4

**Q.** Which LD50 [1] does the source give for `CCN1CCN(c2ccc(CO)c(Cl)c2)CC1` [C2 H5 des N-oxide, 2-chloro-4-(4-ethyl-1-piperazinyl)benzenemethanol, reference compound] here?
**A.** Its LD50 is 150 mg/kg.

**Q.** For `CC[N+]1([O-])CCN(c2ccc(CO)c(Cl)c2)CC1` [C2 H5, 2-chloro-4-(4-ethyl-1-piperazinyl)benzenemethanol, N^ω -oxide], which LD50 [1] is on record?
**A.** The LD50 was > 250 mg/kg.

**Q.** And the “% Mice Cured” value ([2]; single oral dose 75 mg/kg)?
**A.** Its value is 71%.

**Q.** And the “% Reduction Live Worms” value ([2]; single oral dose 75 mg/kg)?
**A.** The value was 92%.

**Q.** Which results are given for `CN1CCN(c2ccc(CO)c(Cl)c2)CC1` [CH3 des N-oxide, 2-chloro-4-(4-methyl-1-piperazinyl)benzenemethanol, reference compound]?
**A.** LD50 [1]: 200 mg/kg; Mutagenic activity, Revertants per n mole [3]: 0.1 Revertants per n mole

**Q.** For `C[N+]1([O-])CCN(c2ccc(CO)c(Cl)c2)CC1` [CH3, 2-chloro-4-(4-methyl-1-piperazinyl)benzenemethanol, N^ω -oxide], which LD50 [1] is on record?
**A.** Its LD50 is 1500 mg/kg.

**Q.** What about the “% Mice Cured” value ([4]; single oral dose 20 mg/kg) of the same compound?
**A.** Its value is 0%.

**Q.** And the “% Reduction Live Worms” value ([4]; single oral dose 20 mg/kg)?
**A.** The value was 73%.

**Q.** What about the “% Mice Cured” value ([4]; single oral dose 40 mg/kg) of the same compound?
**A.** The value was 51%.

**Q.** What about the “% Reduction Live Worms” value ([4]; single oral dose 40 mg/kg) of the same compound?
**A.** Its value is 88%.

**Q.** And the “% Mice Cured” value ([5]; single oral dose 40 mg/kg)?
**A.** Its value is 33%.

**Q.** What about the “% Reduction Live Worms” value ([5]; single oral dose 40 mg/kg) of the same compound?
**A.** Its value is 56%.

**Q.** And the “% Mice Cured” value ([5]; single oral dose 75 mg/kg)?
**A.** The value was 60%.

**Q.** And the “% Reduction Live Worms” value ([5]; single oral dose 75 mg/kg)?
**A.** Its value is 69%.

**Q.** And the “Final Egg Count” value [6]?
**A.** The value was 0.

**Q.** What about the “% Reduction Live Worms” value ([6]; N^ω -oxide, 4 mg/kg) of the same compound?
**A.** The value was 92% and 91%.

**Q.** And the “% Mice Cured” value ([7]; single oral dose 50 mg/kg)?
**A.** The value was 0%.

**Q.** What about the “% Reduction Live Worms” value ([7]; single oral dose 50 mg/kg) of the same compound?
**A.** Its value is 25%.

**Q.** What about the “% Mice Cured” value ([8]; single oral dose 100 mg/kg) of the same compound?
**A.** The value was 100%.

**Q.** And the “% Reduction Live Worms” value ([8]; single oral dose 100 mg/kg)?
**A.** The value was 100%.

**Q.** And the “% Mice Cured” value ([2]; single oral dose 40 mg/kg)?
**A.** Its value is 43%.

**Q.** What about the “% Reduction Live Worms” value ([2]; single oral dose 40 mg/kg) of the same compound?
**A.** Its value is 79%.

**Q.** And the “% Mice Cured” value ([2]; single oral dose 75 mg/kg)?
**A.** The value was 52%.

**Q.** And the “% Reduction Live Worms” value ([2]; single oral dose 75 mg/kg)?
**A.** Its value is 90%.

**Q.** What about the “% Mice Cured” value ([2]; single oral dose 300 mg/kg) of the same compound?
**A.** Its value is 87%.

**Q.** And the “% Reduction Live Worms” value ([2]; single oral dose 300 mg/kg)?
**A.** The value was 99%.

**Q.** And the “% Mice Cured” value ([9]; single oral dose 150 mg/kg)?
**A.** The value was 0%.

**Q.** And the “% Reduction Live Worms” value ([9]; single oral dose 150 mg/kg)?
**A.** The value was 16%.

**Q.** Which LD50 [1] does the source give for `CC(C)N1CCN(c2ccc(CO)c(Cl)c2)CC1` [CH(CH3)2 des N-oxide, 2-chloro-4-[4-(1-methylethyl)-1-piperazinyl]benzenemethanol, reference compound] here?
**A.** Its LD50 is 100 mg/kg.

**Q.** For `CC(C)[N+]1([O-])CCN(c2ccc(CO)c(Cl)c2)CC1` [CH(CH3)2, 2-chloro-4-[4-(1-methylethyl)-1-piperazinyl]-benzenemethanol, N^ω -oxide], which LD50 [1] is on record?
**A.** Its LD50 is > 1500 mg/kg.

**Q.** And the “% Mice Cured” value ([4]; single oral dose 40 mg/kg)?
**A.** Its value is 0%.

**Q.** And the “% Reduction Live Worms” value ([4]; single oral dose 40 mg/kg)?
**A.** Its value is 32%.

**Q.** And the “% Mice Cured” value ([5]; single oral dose 75 mg/kg)?
**A.** The value was 0%.

**Q.** And the “% Reduction Live Worms” value ([5]; single oral dose 75 mg/kg)?
**A.** The value was 25%.

**Q.** And the “% Mice Cured” value ([7]; single oral dose 75 mg/kg)?
**A.** The value was 0%.

**Q.** And the “% Reduction Live Worms” value ([7]; single oral dose 75 mg/kg)?
**A.** Its value is 42%.

**Q.** What about the “% Mice Cured” value ([7]; single oral dose 125 mg/kg) of the same compound?
**A.** Its value is 100%.

**Q.** And the “% Reduction Live Worms” value ([7]; single oral dose 125 mg/kg)?
**A.** The value was 100%.

**Q.** What about the “% Mice Cured” value ([8]; single oral dose 40 mg/kg) of the same compound?
**A.** The value was 75%.

**Q.** What about the “% Reduction Live Worms” value ([8]; single oral dose 40 mg/kg) of the same compound?
**A.** The value was 96%.

**Q.** And the “% Mice Cured” value ([8]; single oral dose 75 mg/kg)?
**A.** Its value is 72%.

**Q.** And the “% Reduction Live Worms” value ([8]; single oral dose 75 mg/kg)?
**A.** The value was 85%.

**Q.** And the “% Mice Cured” value ([2]; single oral dose 40 mg/kg)?
**A.** Its value is 19%.

**Q.** What about the “% Reduction Live Worms” value ([2]; single oral dose 40 mg/kg) of the same compound?
**A.** Its value is 57%.

**Q.** And the “% Mice Cured” value ([2]; single oral dose 75 mg/kg)?
**A.** The value was 100%.

**Q.** And the “% Reduction Live Worms” value ([2]; single oral dose 75 mg/kg)?
**A.** The value was 100%.

**Q.** What about the “% Mice Cured” value ([2]; single oral dose 125 mg/kg) of the same compound?
**A.** Its value is 57%.

**Q.** And the “% Reduction Live Worms” value ([2]; single oral dose 125 mg/kg)?
**A.** Its value is 90%.

**Q.** What about the “Mutagenic activity, Revertants per n mole” value [3] of the same compound?
**A.** The value was 0.007 Revertants per n mole.

**Q.** What about the “% Mice Cured” value ([9]; single oral dose 40 mg/kg) of the same compound?
**A.** The value was 0%.

**Q.** And the “% Reduction Live Worms” value ([9]; single oral dose 40 mg/kg)?
**A.** Its value is 50%.

**Q.** And the “% Mice Cured” value ([9]; single oral dose 75 mg/kg)?
**A.** The value was 57%.

**Q.** What about the “% Reduction Live Worms” value ([9]; single oral dose 75 mg/kg) of the same compound?
**A.** The value was 75%.
